Here are results for one compound from patent US20260232681A1, “CRYSTALLINE FORMS OF N-[4-[4-(4-MORPHOLINYL)-7H-PYRROLO[2,3-D]PYRIMIDIN-6- YL]PHENYL]-4-[[3(R)-[(L-OXO-2-PROPEN-L-YL)AMINO]-L-PIPERIDINYL]METHYL]-2-PYRIDINECARBOXAMIDE AS A COVALENT INHIBITOR OF MENIN-MLL INTERACTION” (BIOMEA FUSION, INC., priority 2023, published 2026).

In data set [1] the test system is type 2 diabetes mellitus adult subjects. The experiment in a line: Clinical study in healthy and type 2 diabetes mellitus subjects (SAD, food effect, MAD; Example 111). Type of data set: in vivo, human. Here is the method: In Experimental Phase 1 (SAD cohorts), 40 healthy adult subjects were randomized into 4 dose escalating cohorts of 10. In each cohort, subjects were randomized at 7:3 (active and placebo) in sequential order. Each cohort was composed of 2 sentinel subjects randomized at 1:1 (active and placebo), followed by 8 additional subjects randomized at 3:1 (active and placebo). Doses were 100 mg, 200 mg, 400 mg, and 600 mg.
In Experimental Phase 1 (3-period crossover, food effect study), each cohort of 12 healthy adult subjects was randomized at 1:1:1:1:1:1 in a 3-period crossover study with 6 treatment sequences.
In Experimental Phase 2 (MAD cohorts), 1 cohort of 16 healthy adult subjects was randomized at 3:1 (active and placebo), and 7 cohorts of type 2 diabetes mellitus adult subjects were randomized at 5:1 (active and placebo) to obtain safety and efficacy data to identify the potential optimal biological dose (OBD) and a recommended Phase 2 dose (RP2D). Doses were 100 mg, 200 mg, 400 mg, and 600 mg.

Data set [2] has as its system Zucker Diabetic Fatty (ZDF) rats. The experiment in a line: Glycemic control and HbA1c in ZDF rats, 28-day dosing plus 28-day washout (Examples 104, 106). Format: in vivo. Here is the method:
Rats were treated daily with Compound 10, liraglutide, or vehicle for twnety-eight days and monitored for an additional twenty-eight days post-treatment.
Zucker Diabetic Fatty (ZDF) rats were dosed daily with Compound 10, liraglutide, or vehicle for twenty-eight days (n=10 per group) and monitored for an additional twenty-eight days post last dose. Fasting blood glucose, insulin, C-peptide levels, HbA1c, oral glucose tolerance test (OGTT), and body weight were monitored during and post-treatment.
ZDF Rat Model—five treatment groups 1. Vehicle; 2. Compound 10 at 40 mg/kg; 3. Compound 10 at 85 mg/kg; 4. Compound 10 at 170 mg/kg; and 5. Liraglutide at 0.2 mg/kg; n=10 per group. Group 2 dose (40 mg/kg) was increased to 200 mg/kg on Day 17 for rest of the dosing phase. Daily dosing zero to twenty-eight days days QD→drug wash out twenty-eight to fifty-six days. Rats were monitored for the following parameters through dosing and wash out phases—body weight, fasting blood sugar, blood insulin, C-peptide, OGTT, and HbA1C.

Data set [3] relates to human pancreatic islet beta cells. The experiment in a line: Beta cell proliferation in human islet microtissues (Examples 107, 110). Type of data set: cell-based. As for the experimental part: Human islet microtissues were aggregated for 5 days and then released into ultra-low attachment plates. Half of the plates were maintained in standard culture medium (5.5 mM glucose), and half were cultured in high-glucose culture medium (GTX, 8 mM glucose) starting at Day 6, for the duration of the whole experiment. Starting on Day 9 (after 3 days of GTX pre-treatment for the relevant plates), dosing with compounds was initiated, using a Tecan D300e Digital Dispenser. DMSO was normalized by volume across all wells. Media were exchanged and compounds were redosed every 2-3 days throughout the experiment. Compound dosing was randomized; to avoid compound cross-contamination between wells, all medium exchanges were performed using 96-well deep well plates with pipette tip exchange.
FIG. 38 provides human pancreatic islet beta cell proliferation on Day 14 and Day 21. In FIG. 38, A is ATP content; B is proliferating beta cell fraction; and C is beta cell fraction. Upper graphs are standard media, and lower graphs are high glucose media. Data represents mean+−SEM of 1 donor with n=4-10 technical replicates. One-way ANOVA with Dunnet's posthoc test to DMSO control. * p<0.05; ** p<0.01; and *** p<0.001.
The ability of menin-MLL inhibitors to induce beta-cell (β-cell) proliferation is tested on human islet microtissue preparations (InSphero). Briefly, human islet microtissues are produced by enzymatic dissociation of the primary islet cells followed by controlled scaffold-free hanging-drop-based self-reaggregation of the islet cells (Misun et al., 2020, Adv. Biosyst. 2020, 4, 1900291). The process helps eliminate contaminating exocrine cells, while enabling homogenous and native-like distribution of endocrine cells within each islet microtissue. […]
Effects of the compound on beta cell function and proliferation were monitored following culturing of the islets in the presence or absence of compound for 1, 2 or 3 weeks. Proliferation of beta cells and is monitored via immunofluorescence staining for appropriate markers. […]

“Also recorded” adds a separate entry of the source.

For `C=CC(=O)N[C@@H]1CCCN(Cc2ccnc(C(=O)Nc3ccc(-c4cc5c(N6CCOCC6)ncnc5[nH]4)cc3)c2)C1` [Compound A, N-[4-[4-(4-morpholinyl)-7H-pyrrolo[2,3-d]pyrimidin-6-yl]phenyl]-4-[[3(R)-[(1-oxo-2-propen-1-yl)amino]-1-piperidinyl]methyl]-2-pyridinecarboxamide], the “episodes of symptomatic hypoglycemia” value in data set [1] (human patients) was “No episodes”. In addition, the “severe or serious TEAEs” value in data set [1] (human subjects) was “No severe or serious TEAEs”. In addition, in data set [1] (human subjects, 4 weeks of treatment), the safety profile entry is on record as “well-tolerated”. In addition, the “glycemic control by oral glucose tolerance test (OGTT)” value in data set [2] (Day 25, versus vehicle) is given as “improved glycemic control”. The tolerability entry in data set [2] (daily for 28 days) is “tolerated Compound 10 well”. Besides, the “HbA1c at all doses tested” value in data set [2] (effects lasting fifteen days after the last dose) is reported as “significant reductions”. The “4-hour fasting blood glucose” value in data set [2] (high-dose arm, up to Day 29, listed as Compound 10) was “strong reduction; also recorded: sustained and significant reduction”. Moreover, the beta-cell proliferation entry in data set [3] (glucose stress condition (8 mM glucose)) is on record as “dose dependent increase”; in data set [3] (standard glucose conditions (5.5 mM glucose)) it was “not under standard glucose conditions”. In data set [3] (human islet microtissues, Day 14 and Day 21, compared to control), the “proliferating beta cell fraction” value was “induced human pancreatic islet beta cells substantially”.
